The target of this test is T1, Androgen receptor (AR) (Homo sapiens, UniProt P10275, T878A).
T1 construct: 5.5×10^5 LNCap cells were injected into each well of a 6-well plate; endogenous in cells; host or cells: LNCaP
T1 sequence (P10275 1-920 T878A): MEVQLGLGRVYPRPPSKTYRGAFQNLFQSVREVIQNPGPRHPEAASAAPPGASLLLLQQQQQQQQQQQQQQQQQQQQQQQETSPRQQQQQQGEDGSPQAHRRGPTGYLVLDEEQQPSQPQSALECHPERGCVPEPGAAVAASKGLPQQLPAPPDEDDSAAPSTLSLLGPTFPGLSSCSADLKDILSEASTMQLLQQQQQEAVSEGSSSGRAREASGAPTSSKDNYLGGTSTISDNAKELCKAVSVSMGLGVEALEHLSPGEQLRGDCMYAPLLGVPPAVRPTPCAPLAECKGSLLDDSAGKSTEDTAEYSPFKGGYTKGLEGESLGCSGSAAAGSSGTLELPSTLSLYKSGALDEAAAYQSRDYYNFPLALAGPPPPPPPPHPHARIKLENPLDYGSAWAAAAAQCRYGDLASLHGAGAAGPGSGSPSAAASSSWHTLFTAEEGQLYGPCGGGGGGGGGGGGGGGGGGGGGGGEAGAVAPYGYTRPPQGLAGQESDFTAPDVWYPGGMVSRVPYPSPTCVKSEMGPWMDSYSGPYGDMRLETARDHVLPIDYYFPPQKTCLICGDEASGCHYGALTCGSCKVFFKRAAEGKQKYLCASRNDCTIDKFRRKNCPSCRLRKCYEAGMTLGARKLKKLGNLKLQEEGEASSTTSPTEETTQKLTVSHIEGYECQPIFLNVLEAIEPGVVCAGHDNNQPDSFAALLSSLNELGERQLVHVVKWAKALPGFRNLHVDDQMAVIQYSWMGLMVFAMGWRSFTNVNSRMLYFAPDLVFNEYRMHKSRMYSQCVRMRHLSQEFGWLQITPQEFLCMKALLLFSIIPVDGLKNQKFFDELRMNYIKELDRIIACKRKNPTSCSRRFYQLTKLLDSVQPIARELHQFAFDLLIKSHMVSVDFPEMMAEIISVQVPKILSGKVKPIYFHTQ
Nature of the test: Assessment of AR proteolytic activity (Western blotting of LNCap cell lysates). Type of test: cell-based. To be noted: 24 hours of treatment, Western blotting quantified with Image J. On the procedure:
Assessment of AR Proteolytic Activity
Androgen receptor (AR) proteolytic activity of the compound according to the present invention was evaluated as follows: Specifically, 5.5×10^5 LNCap cells were injected into each well of a 6-well plate. […] After 24 hours of treatment, cells were collected and lysed using RIPA Lysis buffer (50 mM Tris-HCl, pH7.5, 150 mM NaCl, 1% Triton X-100, 2 mM EDTA, 0.1% SDS, 0.5% sodium deoxycholate and protease inhibitor cocktail) to make cell lysates. Western blotting was performed, and the results were quantified using Image J program.
A general note: A western blot detects proteins with antibodies after separation by electrophoresis.

The structures appear in SMILES notation.

For `CC1(C)C(NC(=O)c2ccc(C#CC3CCN(CC4CN(c5ccc6c(=O)n(C7CCC(=O)NC7=O)nnc6c5)C4)CC3)nc2)C(C)(C)C1Oc1ccc(C#N)c(Cl)c1` (centres unmarked) [Example 183, N-((1r,3r)-3-(3-chloro-4-cyanophenoxy)-2,2,4,4-tetramethylcyclobutyl)-6-((1-((1-(3-(2,6-dioxopiperidin-3-yl)-4-oxo-3,4-dihydrobenzo[d][1,2,3]triazin-7-yl)azetidin-3-yl)methyl)piperidin-4-yl)ethynyl)nicotinamide], the “Degradation (1 μM treated in LNCaP, % AR remaining)” value is recorded as 7.5%.
With `N#Cc1ccc(OC2CCC(NC(=O)c3ccc(N4CCC(CN5CCN(c6ccc7c(=O)n(C8CCC(=O)NC8=O)nnc7c6)CC5)CC4)nc3)CC2)cc1Cl` (centres unmarked) [Example 164, N-((1r,4r)-4-(3-chloro-4-cyanophenoxy)cyclohexyl)-6-(4-((4-(3-(2,6-dioxopiperidin-3-yl)-4-oxo-3,4-dihydrobenzo[d][1,2,3]triazin-7-yl)piperazin-1-yl)methyl)piperidin-1-yl)nicotinamide], the “Degradation (1 μM treated in LNCaP, % AR remaining)” value was found to be 13%.
Consider `CC1(C)C(NC(=O)c2ccc(N3CC[C@H](CN4CCC5(CC4)CN(c4ccc6c(=O)n(C7CCC(=O)NC7=O)nnc6c4)C5)C3)nc2)C(C)(C)C1Oc1ccc(C#N)c(Cl)c1` (stereo partly drawn) [Example 189, N-((1r,3R)-3-(3-chloro-4-cyanophenoxy)-2,2,4,4-tetramethylcyclobutyl)-6-((3R)-3-((2-(3-(2,6-dioxopiperidin-3-yl)-4-oxo-3,4-dihydrobenzo[d][1,2,3]triazin-7-yl)-2,7-diazaspiro[3.5]nonan-7-yl)methyl)pyrrolidin-1-yl)nicotinamide], for which the “Degradation (1 μM treated in LNCaP, % AR remaining)” value came to 14%.
As for `CC1(C)C(NC(=O)c2ccc(C#CC3CCN(CC4CCN(c5ccc6nnn(C7CCC(=O)NC7=O)c(=O)c6c5)CC4)CC3)nc2)C(C)(C)C1Oc1ccc(C#N)c(Cl)c1` (centres unmarked) [Example 196, N-((1r,3r)-3-(3-chloro-4-cyanophenoxy)-2,2,4,4-tetramethylcyclobutyl)-6-((1-((1-(3-(2,6-dioxopiperidin-3-yl)-4-oxo-3,4-dihydrobenzo[d][1,2,3]triazin-6-yl)piperidin-4-yl)methyl)piperidin-4-yl)ethynyl)nicotinamide], the figure is 4%; as for `N#Cc1ccc(O[C@H]2CC[C@H](NC(=O)c3ccc(N4CCC(CN5CC6(CCN(c7ccc8nnn(C9CCC(=O)NC9=O)c(=O)c8c7)CC6)C5)CC4)nc3)CC2)cc1Cl` (some centres unmarked) [Example 168, N-((1r,4r)-4-(3-chloro-4-cyanophenoxy)cyclohexyl)-6-(4-((7-(3-(2,6-dioxopiperidin-3-yl)-4-oxo-3,4-dihydrobenzo[d][1,2,3]triazin-6-yl)-2,7-diazaspiro[3.5]nonan-2-yl)methyl)piperidin-1-yl)nicotinamide], 10%.
Take `CC1(C)C(NC(=O)c2ccc(N3CCC4(CC3)CN(CC3CN(c5ccc6c(=O)n(C7CCC(=O)NC7=O)nnc6c5)C3)C4)nc2)C(C)(C)C1Oc1ccc(C#N)c(Cl)c1` (centres unmarked) [Example 175, N-((1r,3r)-3-(3-chloro-4-cyanophenoxy)-2,2,4,4-tetramethylcyclobutyl)-6-(2-((1-(3-(2,6-dioxopiperidin-3-yl)-4-oxo-3,4-dihydrobenzo[d][1,2,3]triazin-7-yl)azetidin-3-yl)methyl)-2,7-diazaspiro[3.5]nonan-7-yl)nicotinamide]: the “Degradation (1 μM treated in LNCaP, % AR remaining)” value is on record as 10%.
As for `CC1(C)C(NC(=O)c2ccc(N3CCC(CN4CCN(c5ccc6nnn(C7CCC(=O)NC7=O)c(=O)c6c5)CC4)CC3)nc2)C(C)(C)C1Oc1ccc(C#N)c(Cl)c1` (centres unmarked) [Example 162, N-((1r,3r)-3-(3-chloro-4-cyanophenoxy)-2,2,4,4-tetramethylcyclobutyl)-6-(4-((4-(3-(2,6-dioxopiperidin-3-yl)-4-oxo-3,4-dihydrobenzo[d][1,2,3]triazin-6-yl)piperazin-1-yl)methyl)piperidin-1-yl)nicotinamide], the figure is 30%.
In the case of `CC1(C)[C@H](NC(=O)c2ccc(N3CC[C@H](CN4CC5(C4)CN(c4ccc6c(=O)n(C7CCC(=O)NC7=O)nnc6c4)C5)C3)nc2)C(C)(C)[C@H]1Oc1ccc(C#N)c(Cl)c1` (stereo partly drawn) [Example 190, N-((1r,3R)-3-(3-chloro-4-cyanophenoxy)-2,2,4,4-tetramethylcyclobutyl)-6-((3R)-3-((6-(3-(2,6-dioxopiperidin-3-yl)-4-oxo-3,4-dihydrobenzo[d][1,2,3]triazin-7-yl)-2,6-diazaspiro[3.3]heptan-2-yl)methyl)pyrrolidin-1-yl)nicotinamide], the “Degradation (1 μM treated in LNCaP, % AR remaining)” value came to 11%.
As for `CC1(C)[C@H](NC(=O)c2ccc(N3CCC(CCN4CCN(c5ccc6nnn(C7CCC(=O)NC7=O)c(=O)c6c5)CC4)CC3)nc2)C(C)(C)[C@H]1Oc1ccc(C#N)c(Cl)c1` (some centres unmarked) [Example 198, N-((1r,3r)-3-(3-chloro-4-cyanophenoxy)-2,2,4,4-tetramethylcyclobutyl)-6-(4-(2-(4-(3-(2,6-dioxopiperidin-3-yl)-4-oxo-3,4-dihydrobenzo[d][1,2,3]triazin-6-yl)piperazin-1-yl)ethyl)piperidin-1-yl)nicotinamide], the figure is 10%; as for `CC1(C)C(NC(=O)c2ccc(N3CCC(CN4CCN(C5CCN(c6ccc7c(=O)n(C8CCC(=O)NC8=O)nnc7c6)CC5)CC4)CC3)nc2)C(C)(C)C1Oc1ccc(C#N)c(Cl)c1` (centres unmarked) [Example 193, N-((1r,3r)-3-(3-chloro-4-cyanophenoxy)-2,2,4,4-tetramethylcyclobutyl)-6-(4-((4-(1-(3-(2,6-dioxopiperidin-3-yl)-4-oxo-3,4-dihydrobenzo[d][1,2,3]triazin-7-yl)piperidin-4-yl)piperazin-1-yl)methyl)piperidin-1-yl)nicotinamide], 12%; as for `CC1(C)[C@H](NC(=O)c2ccc(N3CC[C@H](CN4CC5(CCN(c6ccc7c(=O)n(C8CCC(=O)NC8=O)nnc7c6)CC5)C4)C3)nc2)C(C)(C)[C@H]1Oc1ccc(C#N)c(Cl)c1` (stereo partly drawn) [Example 185, N-((1r,3R)-3-(3-chloro-4-cyanophenoxy)-2,2,4,4-tetramethylcyclobutyl)-6-((3R)-3-((7-(3-(2,6-dioxopiperidin-3-yl)-4-oxo-3,4-dihydrobenzo[d][1,2,3]triazin-7-yl)-2,7-diazaspiro[3.5]nonan-2-yl)methyl)pyrrolidin-1-yl)nicotinamide], 10%.
As for `N#Cc1ccc(O[C@H]2CC[C@@H](NC(=O)c3ccc(N4CCN(CCCOc5ccc6nnn(C7CCC(=O)NC7=O)c(=O)c6c5)CC4)nc3)CC2)cc1Cl` (some centres unmarked) [Example 161, N-((1r,4r)-4-(3-chloro-4-cyanophenoxy)cyclohexyl)-6-(4-(3-((3-(2,6-dioxopiperidin-3-yl)-4-oxo-3,4-dihydrobenzo[d][1,2,3]triazin-6-yl)oxy)propyl)piperazin-1-yl)nicotinamide], the figure is 36%.
Take `CC1(C)C(NC(=O)c2ccc(N3CCC4(CC3)CN(CC3CCN(c5ccc6nnn(C7CCC(=O)NC7=O)c(=O)c6c5)CC3)C4)nc2)C(C)(C)C1Oc1ccc(C#N)c(Cl)c1` (centres unmarked) [Example 174, N-((1r,3r)-3-(3-chloro-4-cyanophenoxy)-2,2,4,4-tetramethylcyclobutyl)-6-(2-((1-(3-(2,6-dioxopiperidin-3-yl)-4-oxo-3,4-dihydrobenzo[d][1,2,3]triazin-6-yl)piperidin-4-yl)methyl)-2,7-diazaspiro[3.5]nonan-7-yl)nicotinamide]: the “Degradation (1 μM treated in LNCaP, % AR remaining)” value is given as 15%.
As for `CC1(C)C(NC(=O)c2ccc(N3CCC(CN4CCN(c5ccc6nnn(C7CCC(=O)NC7=O)c(=O)c6c5)CC4)CC3)cc2)C(C)(C)C1Oc1ccc(C#N)c(Cl)c1` (centres unmarked) [Example 166, N-((1r,3r)-3-(3-chloro-4-cyanophenoxy)-2,2,4,4-tetramethylcyclobutyl)-4-(4-((4-(3-(2,6-dioxopiperidin-3-yl)-4-oxo-3,4-dihydrobenzo[d][1,2,3]triazin-6-yl)piperazin-1-yl)methyl)piperidin-1-yl)benzamide], the figure is 13%.
